# Values of other authors, collected in patent US20100210586A1, “POMEGRANATE EXTRACTS, NUTRITIONAL PRODUCTS CONTAINING THEM AND THEIR USES” (PROBELTE PHARMA, S.A., priority 2007, published 2010).
# Settings: oral
structure (smiles),measurement,value
O=c1oc2c(O)c(O)cc3c(=O)oc4c(O)c(O)cc1c4c23 [ellagic acid],absorption when administered orally,poorly absorbed
